Values of other authors in article PMC8909834, “An Orally Bioavailable and Highly Efficacious Inhibitor of CDK9/FLT3 for the Treatment of Acute Myeloid Leukemia” (Cancers, 2022).

System: CDK9
Settings: cited from earlier work; for selectivity over other CDKs: CDK9 vs other CDKs

Row | SMILES | selectivity over other CDKs | IC50 [nM]
2 | CC(=O)N[C@@H]1CCC[C@H](C(=O)Nc2cc(-c3cnn4c3CC(C)(C)C4)c(Cl)cn2)C1 [ADZ4573] | > 10 fold | < 4
